Reference: PubChem BioAssay (NCI)
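The compound was tested at five concentrations on cells cultured in 96-well plates, with a 48-hour exposure period. Here, GI50 denotes the concentration required for 50% inhibition of growth. TGI is the concentration that stops growth completely.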

Experiments:
Experiment in all cases: growth of human tumour cells (NCI), 48 h
RXF 393 renal = test system: RXF 393 renal
TK-10 renal = test system: TK-10 renal
NCI-H226 lung = test system: NCI-H226 lung
A549 NSCLC = test system: A549 NSCLC
SR leukemia = test system: SR leukemia
PC-3 prostate = test system: PC-3 prostate
SW-620 colon = test system: SW-620 colon
MOLT-4 leukemia = test system: MOLT-4 leukemia
MALME-3M melanoma = test system: MALME-3M melanoma
SF-295 CNS = test system: SF-295 CNS

Row | SMILES | GI50 (RXF 393 renal) [µM] | TGI (RXF 393 renal) [µM] | GI50 (TK-10 renal) [µM] | TGI (TK-10 renal) [µM] | GI50 (NCI-H226 lung) [µM] | TGI (NCI-H226 lung) [µM] | GI50 (A549 NSCLC) [µM] | TGI (A549 NSCLC) [µM] | GI50 (SR leukemia) [µM] | TGI (SR leukemia) [µM] | GI50 (PC-3 prostate) [µM] | TGI (PC-3 prostate) [µM] | GI50 (SW-620 colon) [µM] | TGI (SW-620 colon) [µM] | GI50 (MOLT-4 leukemia) [µM] | TGI (MOLT-4 leukemia) [µM] | GI50 (MALME-3M melanoma) [µM] | TGI (MALME-3M melanoma) [µM] | GI50 (SF-295 CNS) [µM] | TGI (SF-295 CNS) [µM]
1 | COc1cc([C@@H]2c3cc4c(cc3[C@H](OC(C)=O)[C@H]3COC(=O)[C@H]23)OCO4)cc(OC)c1OC | 0.0691 | > 100 | 75.2 | > 100 | 0.0975 | > 100 | 0.0349 | > 100 | 0.0225 | > 100 | 0.0371 | > 100 | 0.0334 | > 100 | 0.0385 | > 100 | > 100 | > 100 | 0.026 | > 100
2 | CN(C1=NS(=O)(=O)N=C(N(C)c2ccccc2)O1)c1ccccc1 |  | 20.4 |  | 80.2 |  | 33.1 |  | 54.4 |  | 44.7 |  | > 100 |  | 30.3 |  | > 100 |  | 49.7 |  | 57.7
3 | O=C1CCC2=C3C4CCCCC4C(=O)C4CCCC(OC2C1)C34 (stereo not given) | 0.605 | 1.79 | 6.36 | > 29.5 | > 41.2 | > 78.9 | 2.57 | 13.2 | 0.307 | 54.8 | 2.57 | > 29.6 | 0.394 | 3.13 | 0.457 | 5.66 | 0.418 | 1.98 | 2.49 | 15.5
4 | NC(=O)c1cc(Cl)ccc1NC(=O)c1ccccc1-c1ccccc1 | 0.806 | 5.52 | 3.69 | 48 | 18.4 | > 100 | 1.16 | > 100 | 0.439 | 63 | 0.567 | > 100 | 0.412 | > 100 | 0.743 | > 100 | 0.62 | 62.9 | 0.347 | 15.9
5 | CCC(c1ccc(OC)cc1)C(CC)c1ccc(O)c(CN2CCCC2)c1 (stereo not given) | 2.81 | 7.55 | 2.35 | 10.8 | 5.9 | 24.7 | 3.73 | 13.8 | 1.49 | 4.62 | 3.38 | 14.3 | 2.99 | 9.07 | 2.54 | 6.77 | 1.76 | 3.95 | 2.12 | 4.85
6 | O=C1C(Cl)=C(Nc2cccc(O)c2)C(=O)N1c1cccc(Cl)c1 | 25.5 | > 100 | > 100 | > 100 | 26 | 76.9 | 81.1 | > 100 | 27 | > 100 | 21.4 | > 100 | 39 | > 100 | 23 | 71.4 | 51.7 | > 100 | 61.6 | > 100
7 | CCn1cc(C(=O)N/N=C/c2cccc(F)c2)c(=O)c2cc(F)c(N3CCNC(C)C3)c(F)c21 (stereo not given) | 1.69 | 3.22 | 1.73 | 3.18 | 1.97 | 4.13 | 1.74 | 3.29 | 1.33 | 3.14 | 1.62 | 3.09 | 1.68 | 3.17 | 1.75 | 3.4 | 1.72 | 3.23 | 1.8 | 3.29
8 | C=C1SC(=Nc2ccccc2Cl)N(C(=O)c2sc3ccccc3c2Cl)C1(C)C | 16.6 | > 86.5 | 5.57 | 37.1 | 5.52 | > 74.2 | 4.5 | > 100 | 7.1 | > 39.6 | 4.68 | > 100 | 4.68 | > 100 | 3.47 | > 25.4 | 2.01 | 34.6 | 2.07 | 10.7
9 | N/C(=N\c1nc2ccccc2s1)NC(=O)Nc1ccccc1Cl | 0.0983 | 1.56 | 4.11 | 18.7 | 0.429 | 19.2 | 0.19 | 18.1 | 0.0411 | > 32.7 | 0.13 | > 71.9 | 0.0883 | > 52.3 | 0.167 | > 56.6 | 0.667 | 13.2 | 0.106 | 1.74
